How the values were obtained:
Assay in all cases: Bliss excess, mean over the matrix (fraction); higher = more synergy
[1] = tested on: Calu-6 (Non-Small Cell Lung Carcinoma)
Method in brief: (§1)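 Cell lines in DMEM/F12 or RPMI with 10% FBS were plated in 1536-well plates, held 24 hours at 37°C, 5% CO2, then given two-drug dose matrices for 72 hours (DMSO typically 0.2%). Viability was read by CellTiter-Glo 2.0 luminescence and scaled as inhibition from 0 (vehicle wells) to 1 (blank wells). Combination Emax is the second-highest inhibition in the matrix; Bliss excess is observed combination effect minus expected EA + EB − EA·EB, EA and EB being single-agent effects.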

[2] = tested on: JHH-1 (Hepatocellular Carcinoma)
Method in brief: as §1

[3] = tested on: NCI-H1755 (Lung Adenocarcinoma)
Method in brief: as §1

[4] = tested on: NCI-H1623 (Lung Adenocarcinoma)
Method in brief: as §1

[5] = tested on: FLO-1 (Esophageal Adenocarcinoma)
Method in brief: as §1

[6] = tested on: CML-T1 (Chronic Myelogenous Leukemia)
Method in brief: as §1

[7] = tested on: SK-MM-2 (Plasma Cell Myeloma)
Method in brief: as §1

[8] = tested on: NCI-H1155 (Non-Small Cell Lung Carcinoma)
Method in brief: as §1

[9] = tested on: KYSE-70 (Esophageal Squamous Cell Carcinoma)
Method in brief: as §1

[10] = tested on: EB-3 (Burkitt's Lymphoma)
Method in brief: as §1

[11] = tested on: NCI-H196 (Small Cell Lung Carcinoma)
Method in brief: as §1

[12] = tested on: SJRH30 (Rhabdomyosarcoma)
Method in brief: as §1

[13] = tested on: RPMI-8866 (Chronic Myelogenous Leukemia)
Method in brief: as §1

[14] = tested on: OV-90 (Ovarian Carcinoma)
Method in brief: as §1

[15] = tested on: COLO-684 (Endometrial Carcinoma)
Method in brief: as §1

[16] = tested on: RL95-2 (Endometrial Carcinoma)
Method in brief: as §1

KYM-1 (Rhabdomyosarcoma) = tested on: KYM-1 (Rhabdomyosarcoma)
Method in brief: as §1

[17] = tested on: HSC-3 (Oral Cavity Carcinoma)
Method in brief: as §1

CHL-1 (Melanoma) = tested on: CHL-1 (Melanoma)
Method in brief: as §1

HuO-3N1 (Osteosarcoma) = tested on: HuO-3N1 (Osteosarcoma)
Method in brief: as §1

Compound | Bliss excess [1] | Bliss excess [2] | Bliss excess [3] | Bliss excess [4] | Bliss excess [5] | Bliss excess [6] | Bliss excess [7] | Bliss excess [8] | Bliss excess [9] | Bliss excess [10] | Bliss excess [11] | Bliss excess [12] | Bliss excess [13] | Bliss excess [14] | Bliss excess [15] | Bliss excess [16] | Bliss excess (KYM-1 (Rhabdomyosarcoma)) | Bliss excess [17] | Bliss excess (CHL-1 (Melanoma)) | Bliss excess (HuO-3N1 (Osteosarcoma))
CN(CCO)CC[C@H](CSc1ccccc1)Nc1ccc(S(=O)(=O)NC(=O)c2ccc(N3CCC([C@@H](O)c4ccccc4-c4ccc(Cl)cc4)CC3)cc2)cc1S(=O)(=O)C(F)(F)F [AZD4320] + C[C@@H](Nc1cc(F)cc(F)c1)c1cc(C(=O)N(C)C)cc2c(=O)cc(N3CCOCC3)oc12 [AZD8186] (first compound max 1 µM, 7x7, partner max 3 µM) | 0.0264 | -0.0258 | 0.012 | 0.0105 | -0.0261 | 0.0035 | 0.0197 | 0.075 | 0.0092 | 0.0368 | 0.0427 | 0.0718 | 0.0244 | -0.0073 | 0.0193 | -0.0036 | 0.0193 | 0.0482 | 0.0322 | 0.0557
CN(CCO)CC[C@H](CSc1ccccc1)Nc1ccc(S(=O)(=O)NC(=O)c2ccc(N3CCC([C@@H](O)c4ccccc4-c4ccc(Cl)cc4)CC3)cc2)cc1S(=O)(=O)C(F)(F)F [AZD4320] + CCN(CCO)CCCOc1ccc2c(Nc3cc(CC(=O)Nc4cccc(F)c4)[nH]n3)ncnc2c1 [AZD2811] (first compound max 1 µM, 7x7, partner max 1 µM) | -0.0023 | 0.0925 | -0.0024 | -0.0045 | 0.0895 | 0.0624 | -0.0113 | 0.127 | 0.0483 | -0.0065 | -0.0513 | 0.108 | 0.234 | 0.0409 | -0.0217 | 0.119 | -0.01 | 0.0257 | 0.133 | -0.0051
CN(C)CCCOc1ccc(-c2ccc3ncc4c(c3c2)n(C2CCOCC2)c(=O)n4C)cn1 [AZD0156] + O=C(c1cc(Cc2n[nH]c(=O)c3ccccc23)ccc1F)N1CCN(C(=O)C2CC2)CC1 [Olaparib] (first compound max 3 µM, partner max 3 µM) | 0.0096 | 0.0084 | -0.0055 | 0.0126 | 0.0512 | 0.178 | -0.161 | 0.103 | -0.0054 | 0.0234 | -0.0505 | 0.0963 | 0.0607 | 0.035 | 0.0274 | 0.11 | 0.185 | 0.132 | -0.0224 | -0.0328
COc1nnc2ccc(N3CCC(c4ccc(OCCN5CCN(C)C(=O)[C@H]5C)cc4)CC3)nn12 [AZD5153] + CN(CC[C@H](CSC1=CC=CC=C1)NC2=C(C=C(C=C2)S(=O)(=O)NC(=O)C3=CC=C(C=C3)N4CCC(CC4)[C@H](C5=CC=CC=C5C6=CC=C(C=C6)Cl)O)S(=O)(=O)C(F)(F)F)CCO [AZD4320] (first compound max 1 µM, 7x7, partner max 1 µM) | -0.0429 | 0.0585 |  | -0.0087 |  |  |  | 0.0603 |  |  | 0.0277 | 0.0517 | -0.0318 |  |  | 0.0571 |  | 0.0794 |  | 0.0645
CN(C)CCCOc1ccc(-c2ccc3ncc4c(c3c2)n(C2CCOCC2)c(=O)n4C)cn1 [AZD0156] + C=CCn1c(=O)c2cnc(Nc3ccc(N4CCN(C)CC4)cc3)nc2n1-c1cccc(C(C)(C)O)n1 [AZD1775] (first compound max 1 µM, partner max 1 µM) | -0.0479 | -0.0501 | -0.0462 | -0.065 | 0.0285 | -0.0271 | 0.0058 | -0.0213 | -0.0531 | -0.0289 | -0.0791 | -0.0467 | -0.0175 | -0.0335 | -0.0266 | -0.03 | -0.0123 | -0.0534 | -0.0427 | -0.0505
CC1(C)CCC(CN2CCN(c3ccc(C(=O)NS(=O)(=O)c4ccc(NCC5CCOCC5)c([N+](=O)[O-])c4)c(Oc4cnc5[nH]ccc5c4)c3)CC2)=C(c2ccc(Cl)cc2)C1 [Venetoclax] + CCN(CCO)CCCOc1ccc2c(Nc3cc(CC(=O)Nc4cccc(F)c4)[nH]n3)ncnc2c1 [AZD2811] (first compound max 1 µM, 7x7, partner max 1 µM) | 0.0331 | -0.0166 | -0.0135 | -0.0165 | -0.019 | 0.104 | -0.0099 | 0.132 | 0.0245 | 0.0036 | -0.0463 | 0.0544 | 0.133 | -0.0546 | -0.0358 | 0.0814 | -0.0017 | -0.0475 | 0.0784 | 0.0175
COc1nnc2ccc(N3CCC(c4ccc(OCCN5CCN(C)C(=O)[C@H]5C)cc4)CC3)nn12 [AZD5153] + Cn1cnc2c(F)c(Nc3ccc(Br)cc3Cl)c(C(=O)NOCCO)cc21 [Selumetinib] (first compound max 1 µM, 7x7, partner max 10 µM) | 0.0533 | 0.0139 | 0.0053 | 0.0294 | 0.0012 | -0.14 | -0.004 | -0.035 | 0.0097 | -0.0591 | -0.0296 | 0.0152 | -0.0233 | -0.0203 | -0.0134 | -0.0221 | 0.0086 | -0.0211 | 0.0049 | -0.0026
COc1nnc2ccc(N3CCC(c4ccc(OCCN5CCN(C)C(=O)[C@H]5C)cc4)CC3)nn12 [AZD5153] + CCN(CCO)CCCOc1ccc2c(Nc3cc(CC(=O)Nc4cccc(F)c4)[nH]n3)ncnc2c1 [AZD2811] (first compound max 1 µM, 7x7, partner max 1 µM) | -0.0563 | -0.0292 | -0.0058 | -0.0117 | -0.0165 | -0.0571 | -0.0366 | 0.0177 | -0.0265 | -0.0701 | -0.0285 | 0.109 | 0.0254 | -0.0226 | 0.0152 | -0.154 | -0.0682 | -0.0509 | 0.0413 | -0.0705
CC1(C)CCC(CN2CCN(c3ccc(C(=O)NS(=O)(=O)c4ccc(NCC5CCOCC5)c([N+](=O)[O-])c4)c(Oc4cnc5[nH]ccc5c4)c3)CC2)=C(c2ccc(Cl)cc2)C1 [Venetoclax] + Cc1cc2ncnn2cc1Nc1ncc2c(n1)n(C1CCOCC1)c(=O)n2C [AZD7648] (first compound max 1 µM, 7x7, partner max 10 µM) | 0.0067 | -0.0374 | -0.025 | -0.0006 | -0.114 | -0.0195 | 0.0145 | -0.041 | -0.0003 | -0.0225 | -0.0385 | 0.0112 | -0.026 | -0.0639 | -0.0205 | -0.0025 | -0.0074 | 0.0185 | -0.0264 | 0.044
CCN(CCO)CCCOc1ccc2c(Nc3cc(CC(=O)Nc4cccc(F)c4)[nH]n3)ncnc2c1 [AZD2811] + O=C(c1cc(Cc2n[nH]c(=O)c3ccccc23)ccc1F)N1CCN(C(=O)C2CC2)CC1 [Olaparib] (first compound max 1 µM, 7x7, partner max 10 µM) | 0.0004 | 0.0078 | 0.0146 | -0.0526 | -0.0153 | 0.029 | -0.0256 | 0.0393 | 0.0005 | -0.0307 | -0.0193 | 0.0189 | 0.147 | -0.0026 | -0.0102 | -0.0101 | 0.0071 | 0.0273 | -0.0035 | -0.0185
Cn1cnc2c(F)c(Nc3ccc(Br)cc3Cl)c(C(=O)NOCCO)cc21 [Selumetinib] + C[C@@H]1COCCN1C2=NC(=NC(=C2)C3(CC3)[S@](=N)(=O)C)C4=C5C=CNC5=NC=C4 [AZD6738] (first compound max 10 µM, 7x7, partner max 10 µM) | -0.032 | 0.0427 | 0.012 | 0.0028 | -0.0137 | -0.0631 | -0.0604 | -0.0028 | -0.0408 | -0.069 | -0.0607 | -0.0293 | -0.0129 | 0.0049 | -0.0474 | 0.0152 | -0.033 | 0.0049 | -0.0498 | -0.0994
CCc1c2c(nc3ccc(O)cc13)-c1cc3c(c(=O)n1C2)COC(=O)[C@]3(O)CC [SN-38] + O=C(c1cc(Cc2n[nH]c(=O)c3ccccc23)ccc1F)N1CCN(C(=O)C2CC2)CC1 [Olaparib] (first compound max 0.3 µM, 7x7, partner max 10 µM) | 0.0211 | 0.0041 | 0.0419 |  | 0.0371 | -0.0065 | -0.0056 | 0.0532 | 0.0423 | -0.0075 |  | 0.0591 | 0.0155 | 0.0633 | -0.0188 |  | 0.0383 | 0.0263 | 0.0683 | 0.075
CC(=O)c1c(C)c2cnc(Nc3ccc(N4CCNCC4)cn3)nc2n(C2CCCC2)c1=O [Palbociclib] + CN(CC[C@H](CSC1=CC=CC=C1)NC2=C(C=C(C=C2)S(=O)(=O)NC(=O)C3=CC=C(C=C3)N4CCC(CC4)[C@H](C5=CC=CC=C5C6=CC=C(C=C6)Cl)O)S(=O)(=O)C(F)(F)F)CCO [AZD4320] (first compound max 10 µM, 7x7, partner max 1 µM) | 0.0279 | -0.0291 |  | -0.0783 |  |  |  | 0.0351 |  |  | -0.0489 | -0.0467 | -0.0036 |  |  | -0.0566 |  | -0.0254 |  | -0.0289
C=CCn1c(=O)c2cnc(Nc3ccc(N4CCN(C)CC4)cc3)nc2n1-c1cccc(C(C)(C)O)n1 [AZD1775] + C[C@@H]1COCCN1C2=NC(=NC(=C2)C3(CC3)[S@](=N)(=O)C)C4=C5C=CNC5=NC=C4 [AZD6738] (first compound max 1 µM, partner max 10 µM) |  | 0.0194 | -0.0276 | 0.0057 | -0.0531 | 0.0296 | -0.0211 | 0.0817 | 0.0329 | 0.0002 | -0.0093 | 0.0467 | 0.0078 | -0.102 | 0.0245 | 0.0402 | 0.0587 | 0.0038 | -0.0012 | 0.0162
C[C@@H](c1ccc2nccn2c1)n1nnc2ncc(-c3cnn(C)c3)nc21 [Savolitinib] + CN(CC[C@H](CSC1=CC=CC=C1)NC2=C(C=C(C=C2)S(=O)(=O)NC(=O)C3=CC=C(C=C3)N4CCC(CC4)[C@H](C5=CC=CC=C5C6=CC=C(C=C6)Cl)O)S(=O)(=O)C(F)(F)F)CCO [AZD4320] (first compound max 1 µM, 7x7, partner max 1 µM) | -0.005 | -0.0341 |  | -0.0231 |  |  |  | -0.0513 |  |  | -0.0847 | -0.0203 | -0.0815 |  |  | -0.0297 |  | -0.0152 |  | -0.0513

Reference: the supplement of paper PMC11061612
